# From patent US9464064B2, “HCV helicase inhibitors and methods of use thereof” (University of Kansas, priority 2011, dated 2016)
# Test system: Huh-7.5 cells
# Experiment: Cell viability assay ([…]-GLO)
# Format: cell-based, human
# Details: 10 μM
# In short: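 Viability was read by luminescence, integrated for 1 second, after 30 min at 23° C. in […]-GLO reagent mixed equally with growth medium. Before lysis, Huh-7.5 cells had received compound for 72 h and were rinsed with PBS.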
row,Compound,Cell Viability (% @ 10 μM) [%]
1,Cc1ccc2nc(-c3ccc(NC(=O)c4ccc(NC(=O)c5ccc(N)cc5)cc4)cc3)sc2c1S(=O)(=O)O.N [Compound 46],112 ± 5
2,Cc1ccc2nc(-c3ccc4nc(-c5ccc(NC(=O)Nc6ccc(C(F)(F)F)cc6)cc5)sc4c3)sc2c1S(=O)(=O)O.N [Compound 47],99 ± 7
3,Cc1ccc2nc(-c3ccc4nc(-c5ccc(NC(=O)Nc6ccc(F)cc6)cc5)sc4c3)sc2c1S(=O)(=O)O.N [Compound 48],93 ± 2
4,Cc1ccc2nc(-c3ccc4nc(-c5ccc(NC(=O)c6cccc7ccccc67)cc5)sc4c3)sc2c1S(=O)(=O)O.N [Compound 49],103 ± 5
5,Cc1ccc2nc(-c3ccc4nc(-c5ccc(NC(=S)Nc6ccccc6)cc5)sc4c3)sc2c1S(=O)(=O)O.N [Compound 50],98 ± 10
6,Cc1ccc2nc(-c3ccc(NC(=O)c4ccc(NC(=O)c5ccc(NC(=O)OCC6c7ccccc7-c7ccccc76)cc5)cc4)cc3)sc2c1S(=O)(=O)O.N [Compound 51],113 ± 5
7,Cc1ccc2nc(-c3ccc4nc(-c5ccc(NC(=O)Nc6ccccc6)cc5)sc4c3)sc2c1S(=O)(=O)O.N [Compound 52],108 ± 4
8,Cc1ccc2nc(-c3ccc4nc(-c5ccc(NCc6ccccc6)cc5)sc4c3)sc2c1S(=O)(=O)O [Compound 53],109 ± 8

# Test system: MBHA DNA substrate
# Experiment: Modified FID assay, SYBR Green I
# Format: binding
# Details: SYBR Green, 100 μM
# In short: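 Affinity for the MBHA DNA substrate (0.32 μM) estimated by displacement of SYBR Green I (0.68 μM), ethidium bromide omitted. Each compound titrated in triplicate over three independent runs; EC50 from concentration-response fit, reported ± standard deviation.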
row,Compound,FID (SG) % Displaced @ 100 μM [%]
1,Cc1ccc2nc(-c3ccc(NC(=O)c4ccc(NC(=O)c5ccc(N)cc5)cc4)cc3)sc2c1S(=O)(=O)O.N [Compound 46],21
2,Cc1ccc2nc(-c3ccc4nc(-c5ccc(NC(=O)Nc6ccc(C(F)(F)F)cc6)cc5)sc4c3)sc2c1S(=O)(=O)O.N [Compound 47],84 ± 22
3,Cc1ccc2nc(-c3ccc4nc(-c5ccc(NC(=O)Nc6ccc(F)cc6)cc5)sc4c3)sc2c1S(=O)(=O)O.N [Compound 48],58 ± 3
4,Cc1ccc2nc(-c3ccc4nc(-c5ccc(NC(=O)c6cccc7ccccc67)cc5)sc4c3)sc2c1S(=O)(=O)O.N [Compound 49],80 ± 3
5,Cc1ccc2nc(-c3ccc4nc(-c5ccc(NC(=S)Nc6ccccc6)cc5)sc4c3)sc2c1S(=O)(=O)O.N [Compound 50],76 ± 9
6,Cc1ccc2nc(-c3ccc(NC(=O)c4ccc(NC(=O)c5ccc(NC(=O)OCC6c7ccccc7-c7ccccc76)cc5)cc4)cc3)sc2c1S(=O)(=O)O.N [Compound 51],22
7,Cc1ccc2nc(-c3ccc4nc(-c5ccc(NC(=O)Nc6ccccc6)cc5)sc4c3)sc2c1S(=O)(=O)O.N [Compound 52],46 ± 2
8,Cc1ccc2nc(-c3ccc4nc(-c5ccc(NCc6ccccc6)cc5)sc4c3)sc2c1S(=O)(=O)O [Compound 53],92 ± 4

# Same assay, conditions: SYBR Green; read-out: FID (SG) EC50 (converted)
row,Compound,EC50 [µM]
1,Cc1ccc2nc(-c3ccc(NC(=O)c4ccc(NC(=O)c5ccc(N)cc5)cc4)cc3)sc2c1S(=O)(=O)O.N [Compound 46],> 100
2,Cc1ccc2nc(-c3ccc4nc(-c5ccc(NC(=O)Nc6ccc(C(F)(F)F)cc6)cc5)sc4c3)sc2c1S(=O)(=O)O.N [Compound 47],18
3,Cc1ccc2nc(-c3ccc4nc(-c5ccc(NC(=O)Nc6ccc(F)cc6)cc5)sc4c3)sc2c1S(=O)(=O)O.N [Compound 48],74
4,Cc1ccc2nc(-c3ccc4nc(-c5ccc(NC(=O)c6cccc7ccccc67)cc5)sc4c3)sc2c1S(=O)(=O)O.N [Compound 49],30
5,Cc1ccc2nc(-c3ccc4nc(-c5ccc(NC(=S)Nc6ccccc6)cc5)sc4c3)sc2c1S(=O)(=O)O.N [Compound 50],30
6,Cc1ccc2nc(-c3ccc(NC(=O)c4ccc(NC(=O)c5ccc(NC(=O)OCC6c7ccccc7-c7ccccc76)cc5)cc4)cc3)sc2c1S(=O)(=O)O.N [Compound 51],> 100
7,Cc1ccc2nc(-c3ccc4nc(-c5ccc(NC(=O)Nc6ccccc6)cc5)sc4c3)sc2c1S(=O)(=O)O.N [Compound 52],> 100
8,Cc1ccc2nc(-c3ccc4nc(-c5ccc(NCc6ccccc6)cc5)sc4c3)sc2c1S(=O)(=O)O [Compound 53],27

# Target: T1, HCV NS3 helicase NS3h_1b(con1) (Hepatitis C virus genotype 1b, UniProt Q9WMX2)
# T1 construct: truncated C-terminally His-tagged NS3 proteins lacking the N-terminal protease, called NS3h; His-tag (C); made in house
# T1 sequence (Q9WMX2 1192-1657): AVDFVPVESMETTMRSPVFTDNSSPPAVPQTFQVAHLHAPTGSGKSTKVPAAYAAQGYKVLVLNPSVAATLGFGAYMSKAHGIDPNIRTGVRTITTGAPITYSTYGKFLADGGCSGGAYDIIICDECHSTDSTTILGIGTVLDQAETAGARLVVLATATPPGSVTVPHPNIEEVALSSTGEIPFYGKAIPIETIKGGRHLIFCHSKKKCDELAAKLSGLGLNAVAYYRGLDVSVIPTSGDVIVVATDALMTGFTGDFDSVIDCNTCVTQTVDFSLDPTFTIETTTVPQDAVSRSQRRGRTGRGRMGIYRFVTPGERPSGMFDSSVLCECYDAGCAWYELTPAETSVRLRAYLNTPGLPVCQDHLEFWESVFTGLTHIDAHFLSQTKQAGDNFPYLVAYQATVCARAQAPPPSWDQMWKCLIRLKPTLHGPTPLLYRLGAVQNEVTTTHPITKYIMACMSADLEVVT
# Experiment: biochemical
# Format: biochemical, hepatitis C virus genotype 1b(con1)
# Details: genotype 1b (con1); read-out: Target Potency MBHA (IC50 avg., μM) 1b (con1)
# In short: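 Molecular beacon helicase assay with His-tagged recombinant NS3 and a Cy5/IBRQ-labelled partially duplex DNA substrate (25 bp) or Tye665-labelled RNA substrate (19 bp). Reactions started with 1 mM ATP. Screening read fluorescence before and 30 min after ATP (ex 643/em 670 nm). For IC50, 5% v/v DMSO was present, initial velocities came from first-order decay fits, and a Hill equation was applied.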
row,Compound,IC50 [µM]
1,Cc1ccc2nc(-c3ccc(NC(=O)c4ccc(NC(=O)c5ccc(N)cc5)cc4)cc3)sc2c1S(=O)(=O)O.N [Compound 46],30 ± 3.8
2,Cc1ccc2nc(-c3ccc4nc(-c5ccc(NC(=O)Nc6ccc(C(F)(F)F)cc6)cc5)sc4c3)sc2c1S(=O)(=O)O.N [Compound 47],5.1 ± 3.3
3,Cc1ccc2nc(-c3ccc4nc(-c5ccc(NC(=O)Nc6ccc(F)cc6)cc5)sc4c3)sc2c1S(=O)(=O)O.N [Compound 48],7.8 ± 2.2
4,Cc1ccc2nc(-c3ccc4nc(-c5ccc(NC(=O)c6cccc7ccccc67)cc5)sc4c3)sc2c1S(=O)(=O)O.N [Compound 49],4.5 ± 0.4
5,Cc1ccc2nc(-c3ccc4nc(-c5ccc(NC(=S)Nc6ccccc6)cc5)sc4c3)sc2c1S(=O)(=O)O.N [Compound 50],9.3 ± 3.8
6,Cc1ccc2nc(-c3ccc(NC(=O)c4ccc(NC(=O)c5ccc(NC(=O)OCC6c7ccccc7-c7ccccc76)cc5)cc4)cc3)sc2c1S(=O)(=O)O.N [Compound 51],2.5 ± 0.5
7,Cc1ccc2nc(-c3ccc4nc(-c5ccc(NC(=O)Nc6ccccc6)cc5)sc4c3)sc2c1S(=O)(=O)O.N [Compound 52],4.1 ± 1.3
8,Cc1ccc2nc(-c3ccc4nc(-c5ccc(NCc6ccccc6)cc5)sc4c3)sc2c1S(=O)(=O)O [Compound 53],11 ± 1.6

# Same assay, conditions: standard HCV helicase MBHA (Table 9); read-out: DNA Unwinding IC50
row,Compound,IC50 [µM]
1,Cc1ccc2nc(-c3ccc(NC(=O)c4ccc(NC(=O)c5ccc(N)cc5)cc4)cc3)sc2c1S(=O)(=O)O.N [Compound 46],29 ± 4
2,Cc1ccc2nc(-c3ccc4nc(-c5ccc(NC(=O)Nc6ccc(C(F)(F)F)cc6)cc5)sc4c3)sc2c1S(=O)(=O)O.N [Compound 47],5 ± 3
3,Cc1ccc2nc(-c3ccc4nc(-c5ccc(NC(=O)Nc6ccc(F)cc6)cc5)sc4c3)sc2c1S(=O)(=O)O.N [Compound 48],8 ± 2
4,Cc1ccc2nc(-c3ccc4nc(-c5ccc(NC(=O)c6cccc7ccccc67)cc5)sc4c3)sc2c1S(=O)(=O)O.N [Compound 49],5
5,Cc1ccc2nc(-c3ccc4nc(-c5ccc(NC(=S)Nc6ccccc6)cc5)sc4c3)sc2c1S(=O)(=O)O.N [Compound 50],9 ± 4
6,Cc1ccc2nc(-c3ccc(NC(=O)c4ccc(NC(=O)c5ccc(NC(=O)OCC6c7ccccc7-c7ccccc76)cc5)cc4)cc3)sc2c1S(=O)(=O)O.N [Compound 51],3
7,Cc1ccc2nc(-c3ccc4nc(-c5ccc(NC(=O)Nc6ccccc6)cc5)sc4c3)sc2c1S(=O)(=O)O.N [Compound 52],4 ± 1
8,Cc1ccc2nc(-c3ccc4nc(-c5ccc(NCc6ccccc6)cc5)sc4c3)sc2c1S(=O)(=O)O [Compound 53],11 ± 2

# Target: T2, E. coli SSB-Cy5-dT15 complex (Escherichia coli, UniProt P0AGE0)
# T2 construct: purchased Promega
# T2 sequence (P0AGE0 2-178, one chain of several): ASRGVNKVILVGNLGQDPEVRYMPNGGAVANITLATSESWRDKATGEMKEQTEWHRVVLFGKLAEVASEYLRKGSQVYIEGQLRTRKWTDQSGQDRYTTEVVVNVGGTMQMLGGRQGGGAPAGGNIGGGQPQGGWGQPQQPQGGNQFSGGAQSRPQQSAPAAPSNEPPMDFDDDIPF
# Experiment: Escherichia coli SSB Cy5-dT15 binding assay (fluorescence polarization)
# Details: disruption of Cy5-dT15-SSB complex; read-out: Cy5-dT15-SSB Binding IC50
# In short: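 Compounds in DMSO (final 1% for screening, 5% for IC50 determination) added to MOPS pH 7.5 buffer with MgCl2, BSA, Tween 20 and DTT containing 20 nM SSB and 5 nM Cy5-dT15 probe. Displacement followed by polarization at 667 nm after 635 nm excitation.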
row,Compound,IC50 [µM]
1,Cc1ccc2nc(-c3ccc(NC(=O)c4ccc(NC(=O)c5ccc(N)cc5)cc4)cc3)sc2c1S(=O)(=O)O.N [Compound 46],17 ± 5
2,Cc1ccc2nc(-c3ccc4nc(-c5ccc(NC(=O)Nc6ccc(C(F)(F)F)cc6)cc5)sc4c3)sc2c1S(=O)(=O)O.N [Compound 47],15 ± 3
3,Cc1ccc2nc(-c3ccc4nc(-c5ccc(NC(=O)Nc6ccc(F)cc6)cc5)sc4c3)sc2c1S(=O)(=O)O.N [Compound 48],11 ± 2
4,Cc1ccc2nc(-c3ccc4nc(-c5ccc(NC(=O)c6cccc7ccccc67)cc5)sc4c3)sc2c1S(=O)(=O)O.N [Compound 49],9 ± 2
5,Cc1ccc2nc(-c3ccc4nc(-c5ccc(NC(=S)Nc6ccccc6)cc5)sc4c3)sc2c1S(=O)(=O)O.N [Compound 50],7 ± 1
6,Cc1ccc2nc(-c3ccc(NC(=O)c4ccc(NC(=O)c5ccc(NC(=O)OCC6c7ccccc7-c7ccccc76)cc5)cc4)cc3)sc2c1S(=O)(=O)O.N [Compound 51],7 ± 3
7,Cc1ccc2nc(-c3ccc4nc(-c5ccc(NC(=O)Nc6ccccc6)cc5)sc4c3)sc2c1S(=O)(=O)O.N [Compound 52],6 ± 1
8,Cc1ccc2nc(-c3ccc4nc(-c5ccc(NCc6ccccc6)cc5)sc4c3)sc2c1S(=O)(=O)O [Compound 53],5 ± 1

# Same assay, conditions: read-out: SSB % Displaced @ 100 μM
row,Compound,inhibition at 100 µM [%]
1,Cc1ccc2nc(-c3ccc(NC(=O)c4ccc(NC(=O)c5ccc(N)cc5)cc4)cc3)sc2c1S(=O)(=O)O.N [Compound 46],94
2,Cc1ccc2nc(-c3ccc4nc(-c5ccc(NC(=O)Nc6ccc(C(F)(F)F)cc6)cc5)sc4c3)sc2c1S(=O)(=O)O.N [Compound 47],91
3,Cc1ccc2nc(-c3ccc4nc(-c5ccc(NC(=O)Nc6ccc(F)cc6)cc5)sc4c3)sc2c1S(=O)(=O)O.N [Compound 48],100
4,Cc1ccc2nc(-c3ccc4nc(-c5ccc(NC(=O)c6cccc7ccccc67)cc5)sc4c3)sc2c1S(=O)(=O)O.N [Compound 49],94
5,Cc1ccc2nc(-c3ccc4nc(-c5ccc(NC(=S)Nc6ccccc6)cc5)sc4c3)sc2c1S(=O)(=O)O.N [Compound 50],98
6,Cc1ccc2nc(-c3ccc4nc(-c5ccc(NC(=O)Nc6ccccc6)cc5)sc4c3)sc2c1S(=O)(=O)O.N [Compound 52],95
7,Cc1ccc2nc(-c3ccc4nc(-c5ccc(NCc6ccccc6)cc5)sc4c3)sc2c1S(=O)(=O)O [Compound 53],102

# Same assay, conditions: read-out: SSB EC50
row,Compound,EC50 [µM]
1,Cc1ccc2nc(-c3ccc(NC(=O)c4ccc(NC(=O)c5ccc(N)cc5)cc4)cc3)sc2c1S(=O)(=O)O.N [Compound 46],17
2,Cc1ccc2nc(-c3ccc4nc(-c5ccc(NC(=O)Nc6ccc(C(F)(F)F)cc6)cc5)sc4c3)sc2c1S(=O)(=O)O.N [Compound 47],15
3,Cc1ccc2nc(-c3ccc4nc(-c5ccc(NC(=O)Nc6ccc(F)cc6)cc5)sc4c3)sc2c1S(=O)(=O)O.N [Compound 48],11
4,Cc1ccc2nc(-c3ccc4nc(-c5ccc(NC(=O)c6cccc7ccccc67)cc5)sc4c3)sc2c1S(=O)(=O)O.N [Compound 49],9
5,Cc1ccc2nc(-c3ccc4nc(-c5ccc(NC(=S)Nc6ccccc6)cc5)sc4c3)sc2c1S(=O)(=O)O.N [Compound 50],7
6,Cc1ccc2nc(-c3ccc(NC(=O)c4ccc(NC(=O)c5ccc(NC(=O)OCC6c7ccccc7-c7ccccc76)cc5)cc4)cc3)sc2c1S(=O)(=O)O.N [Compound 51],7
7,Cc1ccc2nc(-c3ccc4nc(-c5ccc(NC(=O)Nc6ccccc6)cc5)sc4c3)sc2c1S(=O)(=O)O.N [Compound 52],6
8,Cc1ccc2nc(-c3ccc4nc(-c5ccc(NCc6ccccc6)cc5)sc4c3)sc2c1S(=O)(=O)O [Compound 53],5
